# Reference: article PMC12647759 (Scientific Reports, 2025)
# Values joined by “and” are separate entries in the source; they are usually repeats but may differ in a detail not shown here. Identical values can stand only once.
# Key:
# Format in all cases: biochemical
# [1] = biological target: T1, human PLCε (Homo sapiens, UniProt Q9P212); test: In vitro PLC assay using fluorogenic substrate Compound 1 (HTS), PLCε; settings: for IC50: purified full-length PLCε, fluorogenic substrate Compound 1, read-out: IC50, inhibition of PLCε (hydrolysis of Compound 1)
# T1 construct: expressing the full-length polypeptides of human PLCε, PLCβ4, PLCδ1 and PLCγ1 as FLAG fusions; made in house; host or cells: Expi293F cells
# T1 sequence (Q9P212 whole entry, the tested form may be a part): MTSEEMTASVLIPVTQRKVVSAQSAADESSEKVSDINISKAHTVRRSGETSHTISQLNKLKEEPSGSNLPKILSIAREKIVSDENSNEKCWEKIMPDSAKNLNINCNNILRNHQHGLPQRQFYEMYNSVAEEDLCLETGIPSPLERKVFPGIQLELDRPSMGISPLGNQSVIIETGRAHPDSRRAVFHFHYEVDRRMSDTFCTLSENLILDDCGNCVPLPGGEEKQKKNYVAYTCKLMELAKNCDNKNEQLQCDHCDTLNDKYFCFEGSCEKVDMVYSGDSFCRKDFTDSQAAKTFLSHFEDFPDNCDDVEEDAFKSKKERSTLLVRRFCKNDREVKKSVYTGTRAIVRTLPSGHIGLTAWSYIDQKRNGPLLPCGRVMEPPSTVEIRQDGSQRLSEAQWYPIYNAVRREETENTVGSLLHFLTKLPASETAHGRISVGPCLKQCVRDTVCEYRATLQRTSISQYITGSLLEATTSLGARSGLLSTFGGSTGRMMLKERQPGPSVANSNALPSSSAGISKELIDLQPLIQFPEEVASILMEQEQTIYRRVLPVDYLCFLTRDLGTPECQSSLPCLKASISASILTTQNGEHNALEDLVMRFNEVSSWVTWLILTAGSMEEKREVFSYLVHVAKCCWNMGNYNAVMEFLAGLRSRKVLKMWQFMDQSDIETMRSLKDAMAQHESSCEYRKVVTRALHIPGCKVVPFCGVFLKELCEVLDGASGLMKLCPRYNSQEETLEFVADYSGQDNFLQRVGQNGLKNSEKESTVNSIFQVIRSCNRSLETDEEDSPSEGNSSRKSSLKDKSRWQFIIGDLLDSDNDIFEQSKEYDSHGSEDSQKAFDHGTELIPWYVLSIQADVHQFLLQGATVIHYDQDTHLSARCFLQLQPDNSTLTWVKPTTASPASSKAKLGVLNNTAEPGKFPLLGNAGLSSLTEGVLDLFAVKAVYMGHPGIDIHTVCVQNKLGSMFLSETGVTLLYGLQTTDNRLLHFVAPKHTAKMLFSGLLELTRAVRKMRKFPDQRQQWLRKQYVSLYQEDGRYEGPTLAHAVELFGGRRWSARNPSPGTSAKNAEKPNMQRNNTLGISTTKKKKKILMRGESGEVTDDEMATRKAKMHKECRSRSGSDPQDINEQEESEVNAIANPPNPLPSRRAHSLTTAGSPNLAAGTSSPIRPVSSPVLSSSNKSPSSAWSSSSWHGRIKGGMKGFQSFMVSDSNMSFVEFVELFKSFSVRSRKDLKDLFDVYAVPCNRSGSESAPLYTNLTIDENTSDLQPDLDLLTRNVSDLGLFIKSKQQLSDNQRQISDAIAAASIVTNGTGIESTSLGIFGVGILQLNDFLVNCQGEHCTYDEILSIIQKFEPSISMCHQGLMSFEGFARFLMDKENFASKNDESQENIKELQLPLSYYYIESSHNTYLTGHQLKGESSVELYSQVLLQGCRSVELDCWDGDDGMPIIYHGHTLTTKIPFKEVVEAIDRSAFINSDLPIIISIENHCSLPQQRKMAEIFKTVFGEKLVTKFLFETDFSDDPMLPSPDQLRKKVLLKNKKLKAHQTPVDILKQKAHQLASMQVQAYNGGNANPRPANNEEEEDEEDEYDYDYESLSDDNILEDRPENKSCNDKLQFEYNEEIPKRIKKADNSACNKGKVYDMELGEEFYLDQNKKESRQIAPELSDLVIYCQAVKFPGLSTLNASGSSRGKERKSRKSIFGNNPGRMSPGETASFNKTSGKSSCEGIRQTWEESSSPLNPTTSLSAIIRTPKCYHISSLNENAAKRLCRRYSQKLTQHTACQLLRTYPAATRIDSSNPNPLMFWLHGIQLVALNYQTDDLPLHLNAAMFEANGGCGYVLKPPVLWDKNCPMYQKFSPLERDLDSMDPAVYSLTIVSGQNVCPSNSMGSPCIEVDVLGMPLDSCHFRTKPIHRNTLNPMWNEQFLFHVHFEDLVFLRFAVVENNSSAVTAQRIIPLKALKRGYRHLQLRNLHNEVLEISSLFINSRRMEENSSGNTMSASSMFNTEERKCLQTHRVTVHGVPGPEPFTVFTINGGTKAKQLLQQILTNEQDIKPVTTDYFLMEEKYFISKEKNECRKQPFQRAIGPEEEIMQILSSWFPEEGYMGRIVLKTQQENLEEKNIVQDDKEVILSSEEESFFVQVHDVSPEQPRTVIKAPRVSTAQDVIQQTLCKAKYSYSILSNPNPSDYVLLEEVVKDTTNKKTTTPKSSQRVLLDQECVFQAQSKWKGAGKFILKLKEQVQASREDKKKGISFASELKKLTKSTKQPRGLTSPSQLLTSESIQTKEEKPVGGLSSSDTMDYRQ
# Protocol: For measuring inhibition by compounds for HTS, the reactions were conducted at RIKEN Center for Sustainable Resource Science (CSRS) as described above except that 5 µl of compound solution and 5 µl of purified PLCe (120 ng) were added to each well. […] For determination of the IC50 values for ZPT and Zn^2+, the EDTA concentration was reduced to one-tenth to avoid its zinc-chelating effect. For assay of the other PLC classes, the reactions were performed similarly except that PLCβ4 (5 ng), PLCδ1 (0.1 ng) or PLCγ1 (0.3 ng) was used instead of PLCε.
# [2] = biological target: T2, human PLCδ1 (Homo sapiens, UniProt P51178); test: In vitro PLC assay using fluorogenic substrate Compound 1, PLCδ1; settings: for IC50: purified PLCδ1, fluorogenic substrate Compound 1, read-out: IC50, inhibition of PLCδ1 (hydrolysis of Compound 1)
# T2 construct: expressing the full-length polypeptides of human PLCε, PLCβ4, PLCδ1 and PLCγ1 as FLAG fusions; made in house; host or cells: Expi293F cells
# T2 sequence (P51178 1-756): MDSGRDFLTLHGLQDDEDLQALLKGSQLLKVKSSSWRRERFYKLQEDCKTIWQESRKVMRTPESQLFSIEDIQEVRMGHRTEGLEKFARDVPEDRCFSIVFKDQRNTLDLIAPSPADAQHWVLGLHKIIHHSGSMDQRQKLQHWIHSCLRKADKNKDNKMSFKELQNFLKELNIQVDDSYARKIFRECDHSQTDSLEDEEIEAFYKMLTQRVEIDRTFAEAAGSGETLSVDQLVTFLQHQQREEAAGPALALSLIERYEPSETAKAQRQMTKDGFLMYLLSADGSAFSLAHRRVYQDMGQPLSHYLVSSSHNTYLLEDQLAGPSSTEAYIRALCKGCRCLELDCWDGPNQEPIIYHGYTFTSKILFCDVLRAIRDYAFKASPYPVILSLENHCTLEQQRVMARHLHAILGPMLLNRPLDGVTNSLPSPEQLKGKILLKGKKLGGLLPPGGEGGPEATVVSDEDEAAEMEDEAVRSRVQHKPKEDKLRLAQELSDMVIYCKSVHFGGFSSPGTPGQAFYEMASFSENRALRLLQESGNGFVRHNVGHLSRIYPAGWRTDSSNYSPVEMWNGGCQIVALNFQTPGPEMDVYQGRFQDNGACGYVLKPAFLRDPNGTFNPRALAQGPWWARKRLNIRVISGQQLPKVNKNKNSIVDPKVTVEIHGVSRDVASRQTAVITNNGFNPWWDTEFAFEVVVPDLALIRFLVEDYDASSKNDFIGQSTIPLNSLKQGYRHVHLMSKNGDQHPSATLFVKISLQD
# Protocol: (§1) Ten µl of 2 × substrate solutions (50 mM HEPES pH7.2, 200 mM NaCl, 0.2 mM CaCl2, 0.4 mM DTT, 0.4 µM EDTA, 0.02% gelatin, 0.2% sodium cholate and 60 µM Compound 1) were added to each well of a 384-well plate (CONING #3573) containing 10 µl of purified PLCε (120 ng) and incubated with shaking at 30 °C for 3 h. After terminating the reaction by the addition of 2 µl of 5 mM EDTA, the fluorescence emission was measured at 520 nm with the excitation at 485 nm by a microplate reader (POLARstar Omega-25). For measuring inhibition by compounds for HTS, the reactions were conducted at RIKEN Center for Sustainable Resource Science (CSRS) as described above except that 5 µl of compound solution and 5 µl of purified PLCe (120 ng) were added to each well. Solution dispensing and fluorescence detection were conducted by using an automated dispenser (EDR-384, Biotec) and a hybrid multi-mode microplate reader (Synergy H4, Biotec), respectively. For determination of the IC50 values for ZPT and Zn^2+, the EDTA concentration was reduced to one-tenth to avoid its zinc-chelating effect. For assay of the other PLC classes, the reactions were performed similarly except that PLCβ4 (5 ng), PLCδ1 (0.1 ng) or PLCγ1 (0.3 ng) was used instead of PLCε.
# [3] = biological target: T3, human PLCγ1 (Homo sapiens, UniProt P19174); test: In vitro PLC assay using fluorogenic substrate Compound 1, PLCγ1; settings: for IC50: purified PLCγ1, fluorogenic substrate Compound 1, read-out: IC50, inhibition of PLCγ1 (hydrolysis of Compound 1)
# T3 construct: expressing the full-length polypeptides of human PLCε, PLCβ4, PLCδ1 and PLCγ1 as FLAG fusions; made in house; host or cells: Expi293F cells
# T3 sequence (P19174 1-1290): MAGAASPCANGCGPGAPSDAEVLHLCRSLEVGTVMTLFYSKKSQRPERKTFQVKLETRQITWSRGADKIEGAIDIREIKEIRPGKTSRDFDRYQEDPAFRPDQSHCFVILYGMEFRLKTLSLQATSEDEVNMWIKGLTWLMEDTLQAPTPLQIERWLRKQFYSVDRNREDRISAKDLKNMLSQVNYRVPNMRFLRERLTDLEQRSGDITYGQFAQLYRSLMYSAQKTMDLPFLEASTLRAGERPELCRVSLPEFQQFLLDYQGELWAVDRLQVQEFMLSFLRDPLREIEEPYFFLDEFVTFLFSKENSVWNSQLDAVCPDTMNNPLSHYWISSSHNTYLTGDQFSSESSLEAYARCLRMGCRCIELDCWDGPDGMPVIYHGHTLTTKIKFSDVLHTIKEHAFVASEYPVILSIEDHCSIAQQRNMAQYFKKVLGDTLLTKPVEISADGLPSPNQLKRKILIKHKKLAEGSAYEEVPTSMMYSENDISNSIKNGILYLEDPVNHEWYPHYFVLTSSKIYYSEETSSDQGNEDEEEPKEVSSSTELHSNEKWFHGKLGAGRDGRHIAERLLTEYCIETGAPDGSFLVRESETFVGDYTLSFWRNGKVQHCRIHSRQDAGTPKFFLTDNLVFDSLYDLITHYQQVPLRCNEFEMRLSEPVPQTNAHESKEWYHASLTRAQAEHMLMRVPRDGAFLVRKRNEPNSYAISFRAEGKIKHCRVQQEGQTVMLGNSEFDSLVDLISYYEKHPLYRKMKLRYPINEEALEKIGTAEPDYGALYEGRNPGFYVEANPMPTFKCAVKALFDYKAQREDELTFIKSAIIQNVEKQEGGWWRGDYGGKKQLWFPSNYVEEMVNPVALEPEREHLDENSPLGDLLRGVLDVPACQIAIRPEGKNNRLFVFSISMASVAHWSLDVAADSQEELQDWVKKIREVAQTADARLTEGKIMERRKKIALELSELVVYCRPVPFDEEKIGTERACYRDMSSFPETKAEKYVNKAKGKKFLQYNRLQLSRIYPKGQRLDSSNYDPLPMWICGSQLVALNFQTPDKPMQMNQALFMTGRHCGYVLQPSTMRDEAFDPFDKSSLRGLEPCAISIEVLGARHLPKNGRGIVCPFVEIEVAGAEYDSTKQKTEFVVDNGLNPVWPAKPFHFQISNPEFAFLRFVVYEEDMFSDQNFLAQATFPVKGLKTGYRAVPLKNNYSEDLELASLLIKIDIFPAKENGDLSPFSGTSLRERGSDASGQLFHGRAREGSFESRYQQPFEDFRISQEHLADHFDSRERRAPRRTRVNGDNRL
# Protocol: as §1
# [4] = Compound 1 as substrate, varying concentrations
Compound,IC50 [1],IC50 [2],IC50 [3],"PLCε inhibitory activity of ZnSO4 on addition of excess sodium pyrithione ([1]; 5 µM ZnSO4, varying concentrations of sodium pyrithione)","inhibitory activity toward PLCδ [2, 4]","inhibitory activity toward PLCγ [3, 4]"
COc1ccc2c(c[n+](C)c3c4cc5c(cc4ccc23)OCO5)c1OC [chelerythrine],1.3 µM,7.3 µM,1.8 µM,–,–,–
O=S(=O)([O-])[O-].[Zn+2] [ZnSO4],1.2 µM,–,–,compromised the inhibitory activity of ZnSO4 in a dose-dependent manner,without exhibiting any noticeable inhibitory activities,without exhibiting any noticeable inhibitory activities
CCCCCCOc1ccc2c(c1)Oc1cc(OP(=O)(O)O[C@H]3[C@H](O)[C@@H](O)[C@H](OP(=O)(O)O)[C@@H](O)[C@H]3O)ccc1C21OC(=O)c2ccccc21 (stereo partly shown) [compound 1],3.1 µM,0.4 µM,8.7 µM,–,–,–
"C[n+]1cc2c3c(ccc2c2ccc4cc5c(cc4c21)OCO5)OCO3 [Sanguinarine, sanguinarine]",1.9 µM,48 µM and 47.8 µM,1.6 µM,–,–,–
